Experimental data as given in PubChem BioAssay (NCI).
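Growth conditions: 96-well plates. Treatment: test compound, 48 hours, 5 concentrations. Analysis: linear interpolation between bracketing concentrations; unreached endpoints set to highest concentration. TGI: concentration producing complete growth inhibition.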

How the values were obtained:
Assay in all cases: DTP human tumour cell line panel, 48 h
[1] = system: 786-0 renal
[2] = system: A549 NSCLC
[3] = system: ACHN renal
[4] = system: BT-549 breast
[5] = system: CAKI-1 renal
[6] = system: CCRF-CEM leukemia
[7] = system: COLO 205 colon
[8] = system: DU-145 prostate
[9] = system: EKVX NSCLC
[10] = system: HCT-116 colon
[11] = system: HCT-15 colon
[12] = system: HL-60(TB) leukemia
[13] = system: HOP-92 NSCLC
[14] = system: HS 578T breast
[15] = system: HT29 colon
[16] = system: IGROV1 ovarian
[17] = system: KM12 colon
[18] = system: M14 melanoma
[19] = system: MALME-3M melanoma
[20] = system: MCF7 breast
[21] = system: MDA-MB-231 breast
[22] = system: MDA-MB-435
[23] = system: MDA-N
[24] = system: NCI-H226 lung
[25] = system: NCI-H23 lung
[26] = system: NCI-H460 lung
[27] = system: NCI-H522 lung
[28] = system: NCI/ADR-RES ovarian
[29] = system: OVCAR-5 ovarian
[30] = system: OVCAR-8 ovarian
[31] = system: PC-3 prostate
[32] = system: RPMI-8226 leukemia
[33] = system: RXF 393 renal
[34] = system: SF-268 CNS
[35] = system: SF-295 CNS
[36] = system: SF-539 CNS
[37] = system: SK-MEL-2 melanoma
[38] = system: SK-MEL-5 melanoma
[39] = system: SK-OV-3 ovarian
[40] = system: SN12C renal
[41] = system: SNB-19 CNS
[42] = system: SNB-75 CNS
[43] = system: SW-620 colon
[44] = system: T-47D breast
[45] = system: TK-10 renal
[46] = system: U251 CNS
[47] = system: UACC-257 melanoma
[48] = system: UACC-62 melanoma
[49] = system: UO-31 renal
[50] = system: HCC-2998 colon
[51] = system: HOP-62 NSCLC
[52] = system: K-562 leukemia
[53] = system: MOLT-4 leukemia
[54] = system: OVCAR-3 ovarian
[55] = system: OVCAR-4 ovarian
[56] = system: SK-MEL-28 melanoma
[57] = system: A498 renal
[58] = system: LOX IMVI melanoma

Measured: TGI

Nc1cccc2nnccc12
not listed: [50] | [51] | [52] | [53] | [54] | [55] | [56] | [57] | [58]
> 100 µM: all other assays above

O=S(=O)(c1ccc(Cl)cc1)c1ccccc1C1=NCCN1
not listed: [13] | [27] | [36] | [57] | [58]
> 100 µM: all other assays above

CCc1n[nH]c(=O)n1/N=C/c1ccc(/C=N/n2c(CC)n[nH]c2=O)cc1
not listed: [13] | [36] | [39] | [42] | [50]
> 100 µM: all other assays above
